From US8629173B2, “Solid forms comprising (+)-2-[1-(3-ethoxy-4-methoxyphenyl)-2-methylsulfonylethyl]-4-acetylaminoisoindoline-1,3-dione, compositions thereof, and uses thereof” (Celgene Corporation, priority 2002, dated 2014)

How the values were obtained:
[1] = test system: LPS-induced TNF-α production from human PBMC; assay: LPS-induced TNF-α production from human PBMC; assay type: cell-based; conditions: LPS 100 ng/ml, 18-20 hours
Procedure: Lipopolysaccharide (LPS) is an endotoxin produced by gram-negative bacteria such as E. coli which induces production of many pro-inflammatory cytokines, including TNF-α. In peripheral blood mononuclear cells (PBMC), the TNF-α produced in response to LPS is derived from monocytes, which comprise approximately 5-20% of the total PBMC. Compounds were tested for the ability to inhibit LPS-induced TNF-α production from human PBMC as previously described (Muller et al., 1996, J. Med. Chem., 39:3238). PBMC from normal donors were obtained by Ficoll Hypaque (Pharmacia, Piscataway, N.J., USA) density centrifugation. Cells were cultured in RPMI (Life Technologies, Grand Island, N.Y., USA) supplemented with 10% AB±human serum (Gemini Bio-products, Woodland, Calif., USA), 2 mM L-glutamine, 100 U/ml penicillin, and 100 μg/ml streptomycin (Life Technologies).
PBMC (2×10^5 cells) were plated in 96-well flat-bottom Costar tissue culture plates (Corning, N.Y., USA) in triplicate. Cells were stimulated with LPS (Sigma, St. Louis, Mo., USA) at 100 ng/ml in the absence or presence of compounds. Compounds (Celgene Corp., Warren, N.J., USA) were dissolved in DMSO (Sigma) and further dilutions were done in culture medium immediately before use. The final DMSO concentration in all samples was 0.25%. Compounds were added to cells one hour before LPS stimulation. […]

[2] = test system: SEB-induced IFN-γ production; assay: cells; assay type: cell-based; conditions: Homo sapiens, PBMC, 18 h, read-out: IFN-γ IC50
[3] = test system: Zymosan-induced IL-8 production in human neutrophils; assay: Zymosan-induced IL-8 production; assay type: cell-based; conditions: Neutrophil, 18 hours
Procedure: Zymosan A, or the heat-killed yeast Saccharomyces cerevisiae, binds to the adhesion molecule Mac-1 on the neutrophil surface and triggers phagocytosis, cell activation and IL-8 production. Zymosan-induced IL-8 production was measured as previously described (Au et al., 1998, Brit. J. Pharm., 123:1260-1266) with the following modifications. Human neutrophils were purified as described above, plated in 96-well tissue culture plates at 3×10^5 cells/well in complete medium, treated with compounds at 10, 2, 0.4, 0.08, 0.016, 0.0032, 0.00064, and 0 μM in duplicate in a final DMSO concentration of 0.1% for 1 hour at 37° C. 5% CO2. Neutrophils were then stimulated with unopsonized, boiled Zymosan A (Sigma) at 2.5×10^5 particles/well for 18 hours. Supernatants were harvested and tested for IL-8 by ELISA (R&D Systems).

[4] = test system: moderate to severe plaque-type psoriasis; assay: Phase 2 randomized placebo-controlled study in moderate-to-severe psoriasis; assay type: in vivo, human
Procedure: This phase 2, multicenter, randomized, double-blind, placebo-controlled, parallel-group, dose-comparison study evaluated the efficacy and safety of Compound A in subjects with moderate to severe plaque-type psoriasis who were candidates for systemic therapy. This study included a 12-week treatment phase followed by a 4-week observational follow-up phase. A total of 260 subjects were randomized to receive Compound A 20 mg BID, Compound A 20 mg QD, or placebo for 12 weeks. The primary endpoint for this study was the proportion of subjects treated with Compound A who achieved a 75% reduction in Psoriasis Area and Severity Index score (“PASI-75”) at week 12/last treatment in reference to the baseline visit. Last treatment is defined as the last PASI assessment completed during the 12-week treatment phase.

[5] = pH 7.4
[6] = test system: severe plaque-type psoriasis; assay: Phase 2 open-label pilot study in patients with severe plaque-type psoriasis
[7] = 20 mg BID, week 12/last treatment
[8] = 20 mg orally daily for 29 days plus follow-up
[9] = 20 mg orally daily, 29 days, 17 evaluable
[10] = 20 mg orally daily, Day 29, 8 responders
[11] = 20 mg orally daily, Day 29, 19 enrolled
[12] = 20 mg orally daily, Day 29, of enrolled patients
[13] = Nonresponder, 20 mg orally daily

CCOc1cc(C(CS(C)(=O)=O)N2C(=O)c3cccc(NC(C)=O)c3C2=O)ccc1OC (single isomer, unassigned; (+)) [Compound A, (+)-2-[1-(3-ethoxy-4-methoxyphenyl)-2-methylsulfonylethyl]-4-acetylaminoisoindoline-1,3-dione]
IC50 [1]: 77 nM
IC50 [2]: 46 nM
IC50 [3]: 94 nM
psoriasis flare during the observational follow-up period ([4]; 20 mg BID group, 4-week follow-up): No subjects
study drug-related serious adverse events ([4]; 20 mg BID or 20 mg QD, 12 weeks): No study drug-related serious adverse events
mean decrease in PASI from baseline [4, 7]: 52%
proportion of subjects achieving PASI-50 [4, 7]: 57%
proportion of subjects achieving PASI-90 [4, 7]: 14%
proportion of subjects achieving PASI-75 ([4]; 20 mg BID, week 12/last treatment, P=0.023 vs placebo): 24%
tolerability and safety ([4]; 12 weeks of treatment): well tolerated and safe
aqueous solubility relative to the racemic mixture [5]: 3.5 fold
patients with abnormal HLA-DR that had normal HLA-DR at Day 29 ([6]; 20 mg orally daily): Two
patients with abnormal ICAM-1 at baseline that had normal ICAM-1 at Day 29 ([6]; 20 mg orally daily): Three
patients with abnormal K16 at baseline that had normal K16 at Day 29 ([6]; 20 mg orally daily): one
patients with abnormal fillagrin at baseline that had normal fillagrin at Day 29 ([6]; 20 mg orally daily): three
treatment-related adverse event: headache ([6]; 20 mg orally daily for 29 days): 26.3%
treatment-related adverse event: nausea ([6]; 20 mg orally daily for 29 days): 15.8%
deaths [6, 8]: No deaths
premature discontinuation due to an adverse event [6, 8]: nor did any patient prematurely discontinue due to an adverse event
patients with evaluable biopsies demonstrating a 20% reduction in epidermal skin thickness ([6]; 20 mg orally daily for 29 days, Day 29, 15 evaluable): 53.3%
evaluable patients demonstrating improvement in static Physician's Global Assessment (sPGA) [6, 9]: 52.9%
evaluable patients showing a reduction from baseline in psoriasis body surface area (BSA) [6, 9]: 58.8%
mean reduction from baseline in dermal CD83+ cells in responders ([6]; 20 mg orally daily, Day 29): 25.86%
mean reduction from baseline in epidermal CD83+ cells in responders ([6]; 20 mg orally daily, Day 29): 32.50%
reduction of CD11c cells in the dermis in responders ([6]; 20 mg orally daily, Day 29): 18.50%
reduction of CD11c cells in the epidermis in responders ([6]; 20 mg orally daily, Day 29): 40.16%
decrease of dermal T-cells in responders [6, 10]: 28.79%
decrease of epidermal T-cells in responders [6, 10]: 42.56%
enrolled subjects demonstrating improvement in PASI [6, 11]: 73.7%
patients showing >50% reduction from baseline in total PASI score [6, 11]: 15.8%
mean reduction of epidermal thickness ([6]; 20 mg orally daily, Day 29, all 15 evaluable subjects, p=0.015): 20.5%
enrolled patients showing a reduction from baseline in psoriasis BSA [6, 12]: 52.6%
enrolled patients showing an improvement in sPGA [6, 12]: 47.4%
overall safety ([6]; 20 mg p.o. QD for 29 days): safe
Percentage Reduction at Day 29: CD11c, Dermis [6, 13]: −21.19%
Percentage Reduction at Day 29: CD11c, Epidermis [6, 13]: −2.54%
Percentage Reduction at Day 29: CD83+, Dermis [6, 13]: +0.46%
Percentage Reduction at Day 29: CD83+, Epidermis [6, 13]: −16.31%
Percentage Reduction at Day 29: T-cells, Dermis [6, 13]: −17.34%
Percentage Reduction at Day 29: T-cells, Epidermis [6, 13]: +8.74%
Percentage Reduction at Day 29: CD11c, Dermis ([6]; Responder, 20 mg orally daily): −18.50%
Percentage Reduction at Day 29: CD11c, Epidermis ([6]; Responder, 20 mg orally daily): −40.16%
Percentage Reduction at Day 29: CD83+, Dermis ([6]; Responder, 20 mg orally daily): −25.86%
Percentage Reduction at Day 29: CD83+, Epidermis ([6]; Responder, 20 mg orally daily): −32.50%
Percentage Reduction at Day 29: T-cells, Dermis ([6]; Responder, 20 mg orally daily): −28.79%
Percentage Reduction at Day 29: T-cells, Epidermis ([6]; Responder, 20 mg orally daily): −42.56%
reduction of mRNA expression of iNOS in lesional skin (RT-PCR) ([6]; after 29 days of treatment, 20 mg orally daily, p=0.025): 66.5%
